# Laboratory results as given in patent publication US4002753A, “6-Substituted 3-carbethoxyhydrazinopyridazines” (I.S.F. S.p.A., priority 1973, dated 1977).
# What was measured:
# Format in all cases: in vivo
# [1] = test system: Renal hypertensive awaken rat; experiment: Anti-hypertensive activity in the renal hypertensive awaken rat (Grollman method), arterial pressure by bloodless method; settings: oral; for ED20: read-out: ED20 orally
# Method: Some illustrative results obtained in the renal hypertensive awaken rat according to the method of A. Grollman (Proc. Soc. Exptl. Biol. Med., 57, 102, 1944) are given in Table 1. The products were administered orally to groups of 4 rats for each dosage level. The arterial pressure was measured by bloodless method immediately before and at the 1st, 3rd, 5th, 7th, 12th, 24th, 36th, 48th and 60th hour after administration.
# x ED20 = dose producing a 20% fall in pressure compared to the basal
# Mouse = experiment: Acute toxicity in the mouse, intraperitoneal (approximate LD50); settings: 6 dosage levels
# Method: (§1) The evaluation of the acute toxicity was carried out in the mouse administering the products by the intraperitoneal route at 6 different dosage levels. The approximate LD50 was determined thereafter.
# [2] = as above; settings: in vivo, ip, 6 dosage levels, read-out: Mouse LD50 i.p.
# Method: as §1
# [3] = dose producing a 20% fall in pressure compared to the basal value
compound,measurement,setting,value
"CCOC(=O)NNc1nncc2ccccc12 [Binazin, reference compound]",Time in hours of half effect appearance,[1],20 h
same,Time in hours of maximum effect appearance,[1],3 h
same,ED20 orally,[1]; [3],7 mg/kg
same,Mouse LD50 i.p.,Mouse,500 mg/kg
"CCOC(=O)NNc1ccc(N(C)CC(C)O)nn1 (centres unmarked) [Example 3, 3-(2-Carbethoxyhydrazino)-6-[N-(2-hydroxypropyl)methylamino]-pyridazine]",Time in hours of half effect appearance,[1],36 h
same,Time in hours of maximum effect appearance,[1],5 h
same,ED20,[1]; [3],1 mg/kg
same,LD50,[2],700 mg/kg
"C=CCN(CC=C)c1ccc(NNC(=O)OCC)nn1 [Example 5, 3-(2-Carbethoxyhydrazino)-6-diallylaminopyridazine]",Time in hours of half effect appearance,[1],48 h
same,Time in hours of maximum effect appearance,[1],5 h
same,ED20,[1]; [3],1 mg/kg
same,LD50,[2],300 mg/kg
"CCOC(=O)NNc1ccc(N(CC)CC(C)O)nn1 (centres unmarked) [Example 6, 3-(2-Carbethoxyhydrazino)-6-[N-(2-hydroxypropyl)ethylamino]-pyridazine]",Time in hours of half effect appearance,[1],36 h
same,Time in hours of maximum effect appearance,[1],5 h
same,ED20,[1]; [3],1 mg/kg
same,LD50,[2],700 mg/kg
"NNc1nncc2ccccc12 [Hydralazine, reference compound]",Time in hours of half effect appearance,[1],5 h
same,Time in hours of maximum effect appearance,[1],1 h
same,ED20,[1]; [3],3 mg/kg
same,LD50,[2],100 mg/kg
